Reference: ChEMBL document CHEMBL1201862, “PubChem BioAssay data set” (2004)
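Each compound was tested at five concentrations against cells in 96-well plates for 48 hours. Abbreviation: GI50, concentration required for 50% inhibition of growth.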 Activity calls are given as the source filed them. Rule as the data show it: active = GI50 up to about 1.1 µM and inactive = higher.

What was measured:
Test in all cases: DTP human tumour cell line panel, 48 h
[1] = system: COLO 205
[2] = system: HOP-92
[3] = system: SF-539
[4] = system: EKVX
[5] = system: UACC-257
[6] = system: UO-31
[7] = system: Hs-578T
[8] = system: OVCAR-8
[9] = system: SF-295
[10] = system: HCT-15
[11] = system: PC-3
[12] = system: OVCAR-3
[13] = system: NCI-H522
[14] = system: NCI-H460
[15] = system: HT-29
[16] = system: NCI-H23
[17] = system: MCF7
[18] = system: ACHN
[19] = system: 786-0
[20] = system: M14

Compound	GI50 [1]	GI50 [2]	GI50 [3]	GI50 [4]	GI50 [5]	GI50 [6]	GI50 [7]	GI50 [8]	GI50 [9]	GI50 [10]	GI50 [11]	GI50 [12]	GI50 [13]	GI50 [14]	GI50 [15]	GI50 [16]	GI50 [17]	GI50 [18]	GI50 [19]	GI50 [20]
C[n+]1c(Cl)cn2c3nc4ccccc4nc3c([O-])c(C#N)c21	> 100 µM (inactive)	> 100 µM (inactive)	9.31 µM (inactive)	> 100 µM (inactive)	> 100 µM (inactive)	> 100 µM (inactive)	> 100 µM (inactive)	> 100 µM (inactive)	> 100 µM (inactive)	> 10 µM	> 100 µM (inactive)	> 100 µM (inactive)	> 10 µM (inactive)	9.48 µM (inactive)	> 100 µM (inactive)	> 100 µM (inactive)	18.1 µM (inactive)	99.1 µM (inactive)	> 100 µM (inactive)	> 100 µM (inactive)
CCc1ccc2oc(=O)ccc2c1	> 100 µM (inactive)	> 100 µM (inactive)	> 100 µM (inactive)	32.2 µM (inactive)	> 100 µM (inactive)	31.4 µM (inactive)	> 100 µM (inactive)	> 100 µM (inactive)	> 100 µM (inactive)	> 100 µM	> 100 µM (inactive)	> 100 µM (inactive)	> 100 µM (inactive)	> 100 µM (inactive)	> 100 µM (inactive)	> 100 µM (inactive)	> 100 µM (inactive)	> 100 µM (inactive)	> 100 µM (inactive)	> 100 µM (inactive)
CCOC(=O)CC1(O)CCCCC1(Sc1ccc(C)cc1)Sc1ccc(C)cc1 (stereo not given)	42.2 µM (inactive)	29.6 µM (inactive)	> 100 µM (inactive)	26.9 µM (inactive)	24.1 µM (inactive)	41.8 µM (inactive)	25.4 µM (inactive)	56.1 µM (inactive)	41 µM (inactive)	34.4 µM	33.3 µM (inactive)	55.5 µM (inactive)	18.7 µM (inactive)	56.4 µM (inactive)	32.2 µM (inactive)	49.4 µM (inactive)	31.6 µM (inactive)	51.5 µM (inactive)	48.2 µM (inactive)	41.4 µM (inactive)
CCOC(=O)c1c[nH]cc1-c1cn(S(=O)(=O)c2ccccc2)cc1C	20.1 µM (inactive)	26 µM (inactive)	21.9 µM (inactive)	14.6 µM (inactive)	17.1 µM (inactive)	27.5 µM (inactive)	11.9 µM (inactive)	28.7 µM (inactive)	33.7 µM (inactive)	22.9 µM	18.6 µM (inactive)	18.8 µM (inactive)	15.6 µM (inactive)	18.4 µM (inactive)	21.2 µM (inactive)	24.6 µM (inactive)	29 µM (inactive)	18.9 µM (inactive)	37.1 µM (inactive)	21.7 µM (inactive)
C=C1c2ccccc2C(=O)c2c1c1c(C(=O)OC)c(O)ccc1n2Cc1ccccc1	1.97 µM (inactive)	< 0.01 µM (active)	0.228 µM (active)	0.9 µM (active)	1.71 µM (inactive)	0.512 µM (active)	0.297 µM (active)	0.245 µM (active)	0.574 µM (active)	0.232 µM	0.437 µM (active)	0.151 µM (active)	0.237 µM (active)	0.908 µM (active)	0.163 µM (active)	0.713 µM (active)	0.249 µM (active)	0.454 µM (active)	0.197 µM (active)	0.314 µM (active)
NCCS(=O)(=O)O [TAURINE]	> 100 µM (inactive)	> 100 µM (inactive)	> 100 µM (inactive)	> 100 µM (inactive)	> 100 µM (inactive)	> 100 µM (inactive)	> 100 µM (inactive)	> 100 µM (inactive)	> 100 µM (inactive)	> 100 µM	> 100 µM (inactive)	> 100 µM (inactive)	> 100 µM (inactive)	> 100 µM (inactive)	> 100 µM (inactive)	> 100 µM (inactive)	> 100 µM (inactive)	> 100 µM (inactive)	> 100 µM (inactive)	> 100 µM (inactive)
CC(=O)C(O)N1C(=O)C=CC1=O (stereo not given)	1.56 µM (inactive)	2.07 µM (inactive)	5.41 µM (inactive)	6.5 µM (inactive)	6 µM (inactive)	5.86 µM (inactive)	7.38 µM (inactive)	6.22 µM (inactive)	18.3 µM (inactive)	1.84 µM	6.11 µM (inactive)	17.6 µM (inactive)	1 µM (active)	3.58 µM (inactive)	16.4 µM (inactive)	15.9 µM (inactive)	> 25 µM (inactive)	2.61 µM (inactive)	2.33 µM (inactive)	4.23 µM (inactive)
O=C(N/N=C/c1ccc2c(c1)OCO2)Nc1ccccc1Cl	0.957 µM (active)	6.24 µM (inactive)	0.918 µM (active)	8.07 µM (inactive)	2.23 µM (inactive)	4.25 µM (inactive)	1.66 µM (inactive)	2.56 µM (inactive)	0.47 µM (active)	0.418 µM	2.21 µM (inactive)	0.391 µM (active)	0.233 µM (active)	0.65 µM (active)	0.8 µM (active)	1.66 µM (inactive)	0.469 µM (active)	7.43 µM (inactive)	3.69 µM (inactive)	0.671 µM (active)
